# Experimental data as given in patent publication US20230233569A1 (Revolution Medicines, Inc., priority 2020, published 2023).
# Read-outs that look alike come from different tables or passages of the source.
# Columns and labels:
# Experiment in all cases: Ras-Raf disruption / FRET / MOA assay (BRAF RBD)
# Format in all cases: biochemical
# KRAS G12V = KRAS G12V (Homo sapiens, UniProt P01116+P62937, G12V); conditions: with Cyclophilin A
# Source text: (§1) Disruption of […] Ras-binding Domain (BRAF^RBD) Interaction with K-Ras by Compounds of the Invention (also Called a FRET Assay or an MOA Assay)
# (§2) Note—The following protocol describes a procedure for monitoring disruption of K-Ras G12C (GMP-PNP) binding to BRAF^RBD by a compound of the invention. This protocol may also be executed substituting other Ras proteins or nucleotides, such as K-Ras G12D and K-Ras G13D.
# (§3) The purpose of this biochemical assay was to measure the ability of test compounds to facilitate ternary complex formation between a nucleotide-loaded K-Ras isoform and Cyclophilin A; the resulting ternary complex disrupts binding to a BRAF^RBD construct, inhibiting K-Ras signaling through a RAF effector. Data is reported as IC50 values.
# (§4) In assay buffer containing 25 mM HEPES pH 7.3, 0.002% Tween20, 0.1% BSA, 100 mM NaCl and 5 mM MgCl2, tagless Cyclophilin A, His6-K-Ras-GMPPNP, and GST-BRAF^RBD were combined in a 384-well assay plate at final concentrations of 25 μM, 12.5 nM, and 50 nM, respectively. Compound was present in plate wells as a 10-point 3-fold dilution series starting at a final concentration of 30 μM. After incubation at 25° C. for 3 hours, a mixture of anti-His Eu-W1024 and anti-GST allophycocyanin was then added to assay sample wells at final concentrations of 10 nM and 50 nM, respectively, and the reaction incubated for an additional 1.5 hours. […] Compounds that facilitate disruption of a K-Ras:RAF complex were identified as those eliciting a decrease in the TR-FRET ratio relative to DMSO control wells.
# NRAS G12C = NRAS G12C (Homo sapiens, UniProt P01111+P62937, G12C)
# Sequence of NRAS G12C (P01111 whole entry G12C): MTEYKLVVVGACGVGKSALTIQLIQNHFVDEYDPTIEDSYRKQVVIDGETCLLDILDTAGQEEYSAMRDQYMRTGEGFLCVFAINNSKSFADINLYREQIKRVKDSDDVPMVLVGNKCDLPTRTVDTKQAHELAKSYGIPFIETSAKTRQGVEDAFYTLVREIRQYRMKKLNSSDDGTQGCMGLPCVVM
# Sequence of NRAS G12C (P62937 whole entry): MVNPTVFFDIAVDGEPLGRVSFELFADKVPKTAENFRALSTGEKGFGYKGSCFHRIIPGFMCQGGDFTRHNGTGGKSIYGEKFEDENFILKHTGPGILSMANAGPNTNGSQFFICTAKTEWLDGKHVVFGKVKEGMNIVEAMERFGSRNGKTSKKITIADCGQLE
# Source text: as §1, §2, §3, §4
# KRAS G12D = KRAS G12D (Homo sapiens, UniProt P01116+P62937, G12D); conditions: with Cyclophilin A
# Sequence of KRAS G12D (P01116 1-169 isoform P01116-2 G12D limits assumed): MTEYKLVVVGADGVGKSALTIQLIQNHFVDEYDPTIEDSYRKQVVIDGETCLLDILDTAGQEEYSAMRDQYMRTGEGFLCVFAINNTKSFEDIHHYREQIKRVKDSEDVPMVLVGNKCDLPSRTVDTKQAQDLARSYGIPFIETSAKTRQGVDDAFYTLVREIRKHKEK
# Sequence of KRAS G12D (P62937 whole entry): as the sequence (P62937 whole entry) above
# Source text: as §1, §2, §3, §4
# KRAS WT = KRAS WT (Homo sapiens, UniProt P01116+P62937); conditions: with Cyclophilin A
# Sequence of KRAS WT (P01116 1-169 isoform P01116-2 limits assumed): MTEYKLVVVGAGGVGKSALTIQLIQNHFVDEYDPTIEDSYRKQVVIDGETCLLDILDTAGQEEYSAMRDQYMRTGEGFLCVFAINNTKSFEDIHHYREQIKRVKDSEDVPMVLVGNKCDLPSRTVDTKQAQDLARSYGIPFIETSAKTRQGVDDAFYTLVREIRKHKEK
# Sequence of KRAS WT (P62937 whole entry): as the sequence (P62937 whole entry) above
# Source text: as §1, §2, §3, §4
# KRAS G13C = KRAS G13C (Homo sapiens, UniProt P01116+P62937, G13C); conditions: with Cyclophilin A
# Sequence of KRAS G13C (P01116 1-169 isoform P01116-2 G13C limits assumed): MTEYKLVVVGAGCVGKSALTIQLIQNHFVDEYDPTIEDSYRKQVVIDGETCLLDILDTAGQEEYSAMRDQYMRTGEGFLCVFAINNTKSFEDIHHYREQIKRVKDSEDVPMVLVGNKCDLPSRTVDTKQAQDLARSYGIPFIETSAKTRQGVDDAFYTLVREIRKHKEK
# Sequence of KRAS G13C (P62937 whole entry): as the sequence (P62937 whole entry) above
# Source text: as §1, §2, §3, §4
# KRAS G12S = KRAS G12S (Homo sapiens, UniProt P01116+P62937, G12S); conditions: with Cyclophilin A
# Sequence of KRAS G12S (P01116 1-169 isoform P01116-2 G12S limits assumed): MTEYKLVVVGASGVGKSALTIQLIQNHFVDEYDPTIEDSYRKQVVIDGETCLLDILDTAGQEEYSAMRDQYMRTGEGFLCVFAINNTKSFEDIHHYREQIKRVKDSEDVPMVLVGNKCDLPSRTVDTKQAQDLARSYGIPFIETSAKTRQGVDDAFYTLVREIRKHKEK
# Sequence of KRAS G12S (P62937 whole entry): as the sequence (P62937 whole entry) above
# Source text: as §1, §2, §3, §4
# KRAS G13D = KRAS G13D (Homo sapiens, UniProt P01116+P62937, G13D); conditions: with Cyclophilin A
# Sequence of KRAS G13D (P01116 1-169 isoform P01116-2 G13D limits assumed): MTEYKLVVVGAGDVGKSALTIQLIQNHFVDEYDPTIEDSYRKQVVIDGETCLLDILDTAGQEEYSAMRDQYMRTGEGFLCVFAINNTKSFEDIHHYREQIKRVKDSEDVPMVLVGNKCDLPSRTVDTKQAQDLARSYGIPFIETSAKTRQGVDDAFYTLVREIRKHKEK
# Sequence of KRAS G13D (P62937 whole entry): as the sequence (P62937 whole entry) above
# Source text: as §1, §2, §3, §4
# KRAS G12C = KRAS G12C (Homo sapiens, UniProt P01116+P62937, G12C); conditions: with Cyclophilin A
# Sequence of KRAS G12C (P01116 1-169 isoform P01116-2 G12C limits assumed): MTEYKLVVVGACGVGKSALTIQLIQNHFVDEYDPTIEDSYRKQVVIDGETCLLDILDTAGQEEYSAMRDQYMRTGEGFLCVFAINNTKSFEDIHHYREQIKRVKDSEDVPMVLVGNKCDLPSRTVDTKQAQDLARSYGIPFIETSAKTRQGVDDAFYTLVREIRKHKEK
# Sequence of KRAS G12C (P62937 whole entry): as the sequence (P62937 whole entry) above
# Source text: as §1, §2, §3, §4
# as §3, with “is” for “was”, “Ras” for “K-Ras”, “cyclophilin” for “Cyclophilin”, “effector.” for “effector. Data is reported as IC50 values.”
# In assay buffer containing 25 mM HEPES pH 7.3, 0.002% Tween20, 0.1% BSA, 100 mM NaCl and 5 mM MgCl2, tagless Cyclophilin A, His6-K-Ras-GMPPNP (or other Ras variant), and GST-BRAF^RBD are combined in a 384-well assay plate at final concentrations of 25 μM, 12.5 nM and 50 nM, respectively. Compound is present in plate wells as a 10-point 3-fold dilution series starting at a final concentration of 30 μM. After incubation at 25° C. for 3 hours, a mixture of Anti-His Eu-W1024 and anti-GST allophycocyanin is then added to assay sample wells at final concentrations of 10 nM and 50 nM, respectively, and the reaction incubated for an additional 1.5 hours. […] Compounds that facilitate disruption of a Ras:RAF complex are identified as those eliciting a decrease in the TR-FRET ratio relative to DMSO control wells.
# [1] = Ras-Raf disruption, read-out: KRAS G12V FRET data IC50
# [2] = NRAS G12C, read-out: NRAS G12C FRET data IC50
# [3] = Ras-Raf disruption, read-out: KRAS G12D FRET data IC50
# [4] = Ras-Raf disruption, read-out: KRAS WT FRET data IC50
# [5] = Ras-Raf disruption, read-out: KRAS G13C FRET data IC50
# [6] = Ras-Raf disruption, read-out: KRAS G12S FRET data IC50
# [7] = Ras-Raf disruption, read-out: KRAS G13D FRET data IC50
# [8] = Ras-Raf disruption, read-out: KRAS G12C FRET data IC50
# Sequence of KRAS G12V (P01116 1-169 isoform P01116-2 G12V limits assumed): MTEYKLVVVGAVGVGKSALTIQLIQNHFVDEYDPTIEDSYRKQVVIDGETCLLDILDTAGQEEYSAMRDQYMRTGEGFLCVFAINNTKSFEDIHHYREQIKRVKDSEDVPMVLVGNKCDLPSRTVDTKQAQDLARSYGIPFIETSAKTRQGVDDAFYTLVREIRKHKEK
# Sequence of KRAS G12V (P62937 whole entry, the tested form may be a part): as the sequence (P62937 whole entry) above
Compound,IC50 (KRAS G12V; [1]) [µM],IC50 (NRAS G12C; [2]) [µM],IC50 (KRAS G12D; [3]) [µM],IC50 (KRAS WT; [4]) [µM],IC50 (KRAS G13C; [5]) [µM],IC50 (KRAS G12S; [6]) [µM],IC50 (KRAS G13D; [7]) [µM],IC50 (KRAS G12C; [8]) [µM],"IC50 (KRAS G12V; KRAS G12V FRET data IC50, Ras-Raf disruption) [µM]","IC50 (NRAS G12C; NRAS G12C FRET data IC50, NRAS G12C) [µM]","IC50 (KRAS G12D; KRAS G12D FRET data IC50, Ras-Raf disruption) [µM]","IC50 (KRAS WT; KRAS WT FRET data IC50, Ras-Raf disruption) [µM]","IC50 (KRAS G13C; KRAS G13C FRET data IC50, Ras-Raf disruption) [µM]","IC50 (KRAS G12S; KRAS G12S FRET data IC50, Ras-Raf disruption) [µM]","IC50 (KRAS G13D; KRAS G13D FRET data IC50, Ras-Raf disruption) [µM]","IC50 (KRAS G12C; KRAS G12C FRET data IC50, Ras-Raf disruption) [µM]"
"CCn1c(-c2cccnc2[C@H](C)OC)c2c3cc(ccc31)-c1cc(O)cc(c1)C[C@H](NC(=O)[C@H](C(C)C)N(C)C(=O)c1ccc(NC(=O)[C@@H]3CN3)cn1)C(=O)N1CCC[C@H](N1)C(=O)OCC(C)(C)C2 (atropisomer, axis not shown) [Example 187]",0.1 to 1,0.1 to 1,0.1 to 1,0.1 to 1,0.01 to 0.1,0.1 to 1,0.1 to 1,0.1 to 1,–,–,–,–,–,–,–,–
"CCn1c(-c2cccnc2[C@H](C)OC)c2c3cc(ccc31)-c1cc(O)cc(c1)C[C@H](NC(=O)[C@H](C(C)C)N(C)C(=O)N1CC(NC(=O)[C@@H]3CN3)C1)C(=O)N1CCC[C@H](N1)C(=O)OCC(C)(C)C2 (atropisomer, axis not shown) [Example 188]",0.1 to 1,0.01 to 0.1,0.1 to 1,0.1 to 1,0.01 to 0.1,0.1 to 1,0.1 to 1,0.01 to 0.1,–,–,–,–,–,–,–,–
"CCn1c(-c2cccnc2[C@H](C)OC)c2c3cc(ccc31)-c1cc(O)cc(c1)C[C@H](NC(=O)[C@H](C(C)C)N(C)C(=O)N1CC(NC(=O)[C@H]3CN3)C1)C(=O)N1CCC[C@H](N1)C(=O)OCC(C)(C)C2 (atropisomer, axis not shown) [Example 189]",0.01 to 0.1,0.01 to 0.1,0.1 to 1,0.01 to 0.1,0.01 to 0.1,0.1 to 1,0.1 to 1,0.01 to 0.1,–,–,–,–,–,–,–,–
"CCn1c(-c2cccnc2[C@H](C)OC)c2c3cc(ccc31)-c1cc(O)cc(c1)C[C@H](NC(=O)[C@H](C(C)C)N(C)C(=O)N1CCCN(C(=O)[C@H]3CN3)CC1)C(=O)N1CCC[C@H](N1)C(=O)OCC(C)(C)C2 (atropisomer, axis not shown) [Example 190]",0.01 to 0.1,0.01 to 0.1,0.1 to 1,0.01 to 0.1,0.01 to 0.1,0.01 to 0.1,0.1 to 1,< 0.01,–,–,–,–,–,–,–,–
"CCn1c(-c2cccnc2[C@H](C)OC)c2c3cc(ccc31)-c1cc(O)cc(c1)C[C@H](NC(=O)[C@H](C(C)C)N(C)C(=O)[C@H]1CCN(C(=O)[C@@H]3N[C@@H]3C3CC3)C1)C(=O)N1CCC[C@H](N1)C(=O)OCC(C)(C)C2 (atropisomer, axis not shown) [Example 198]",0.1 to 1,< 0.01,0.01 to 0.1,0.01 to 0.1,0.01 to 0.1,0.01 to 0.1,0.01 to 0.1,< 0.01,–,–,–,–,–,–,–,–
"CCn1c(-c2cccnc2[C@H](C)OC)c2c3cc(ccc31)-c1cc(O)cc(c1)C[C@H](NC(=O)[C@H](C(C)C)N(C)C(=O)CN(C)C(=O)[C@H]1CN1)C(=O)N1CCC[C@H](N1)C(=O)OCC(C)(C)C2 (single isomer, unassigned) [Example 42B]",–,–,–,–,–,–,–,–,1 to 10,0.1 to 1,1 to 10,1 to 10,0.1 to 1,1 to 10,1 to 10,0.1 to 1
"CCn1c(-c2cccnc2[C@H](C)OC)c2c3cc(ccc31)-c1cc(O)cc(c1)C[C@H](NC(=O)[C@H](C(C)C)N(C)C(=O)[C@H]1CCN(C(=O)[C@H]3CN3)C1)C(=O)N1CCC[C@H](N1)C(=O)OCC(C)(C)C2 (single isomer, unassigned) [Example 43A]",0.01 to 0.1,< 0.01,0.01 to 0.1,0.01 to 0.1,0.01 to 0.1,0.01 to 0.1,0.01 to 0.1,< 0.01,–,–,–,–,–,–,–,–
"CCn1c(-c2cccnc2[C@H](C)OC)c2c3cc(ccc31)-c1cc(O)cc(c1)C[C@H](NC(=O)[C@H](C(C)C)N(C)C(=O)[C@H]1CCN(S(=O)(=O)[C@@H]3CN3C)C1)C(=O)N1CCC[C@H](N1)C(=O)OCC(C)(C)C2 (single isomer, unassigned) [Example 56]",0.1 to 1,0.1 to 1,0.1 to 1,0.1 to 1,0.01 to 0.1,0.1 to 1,0.1 to 1,0.01 to 0.1,–,–,–,–,–,–,–,–
"CCn1c(-c2cccnc2[C@H](C)OC)c2c3cc(ccc31)-c1cc(O)cc(c1)C[C@H](NC(=O)[C@H](C(C)C)N(C)C(=O)[C@H]1CCN(S(=O)(=O)[C@H]3CN3C)C1)C(=O)N1CCC[C@H](N1)C(=O)OCC(C)(C)C2 (single isomer, unassigned) [Example 57]",0.1 to 1,0.1 to 1,1 to 10,0.1 to 1,0.01 to 0.1,0.1 to 1,0.1 to 1,0.1 to 1,–,–,–,–,–,–,–,–
"CCn1c(-c2cccnc2[C@H](C)OC)c2c3cc(ccc31)-c1cc(O)cc(c1)C[C@H](NC(=O)[C@H](C(C)C)N(C)C(=O)C1CN(S(=O)(=O)[C@@H]3CN3C)C1)C(=O)N1CCC[C@H](N1)C(=O)OCC(C)(C)C2 (single isomer, unassigned) [Example 118]",0.1 to 1,0.1 to 1,1 to 10,0.1 to 1,0.01 to 0.1,0.1 to 1,0.1 to 1,0.1 to 1,–,–,–,–,–,–,–,–
CCn1c(-c2cnccc2COC)c2c3cc(ccc31)-c1cccc(c1)C[C@H](NC(=O)[C@H](C(C)C)N(C)C(=O)CCN=C=NCCOC)C(=O)N1CCC[C@H](N1)C(=O)OCC(C)(C)C2 [23 A and B],> 10,0.01 to 0.1,1 to 10,1 to 10,1 to 10,1 to 10,> 10,0.01 to 0.1,–,–,–,–,–,–,–,–
CCn1c(-c2cnccc2COC)c2c3cc(ccc31)-c1cccc(c1)C[C@H](NC(=O)[C@H](C(C)C)N(C)C(=O)CCN=C=NCc1c(OC)cccc1OC)C(=O)N1CCC[C@H](N1)C(=O)OCC(C)(C)C2 [62 A and B],> 10,1 to 10,1 to 10,1 to 10,1 to 10,1 to 10,1 to 10,1 to 10,–,–,–,–,–,–,–,–
CCn1c(-c2cnccc2COC)c2c3cc(ccc31)-c1cccc(c1)C[C@H](NC(=O)[C@H](C(C)C)N(C)C(=O)CC(C)(C)N=C=Nc1ccc(OC)cc1)C(=O)N1CCC[C@H](N1)C(=O)OCC(C)(C)C2 [64 A and B],> 10,> 10,> 10,> 10,> 10,> 10,> 10,> 10,–,–,–,–,–,–,–,–
